Measurements from PubChem BioAssay (NCI).
Several values for one entry are separate records, joined by “and”; a condition that tells them apart may be missing. Equal values may be shown once.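 Interpolation was linear, between the two tested concentrations surrounding the appropriate level; five concentrations were tested over 48 hours in 96-well plates. Abbreviation: GI50, concentration required for 50% inhibition of growth. TGI: total growth inhibition.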

Experiments:
Test in all cases: inhibition of tumour cell growth, NCI panel, 48 h; in the data active means GI50 below about 0.43 µM; inactive means the rest
786-0 renal = tested on: 786-0 renal
A498 renal = tested on: A498 renal
A549 NSCLC = tested on: A549 NSCLC
ACHN renal = tested on: ACHN renal
CAKI-1 renal = tested on: CAKI-1 renal
CCRF-CEM leukemia = tested on: CCRF-CEM leukemia
COLO 205 colon = tested on: COLO 205 colon
DLD-1 colon = tested on: DLD-1 colon
DMS 114 small cell lung = tested on: DMS 114 small cell lung
EKVX NSCLC = tested on: EKVX NSCLC
HCC-2998 colon = tested on: HCC-2998 colon
HCT-116 colon = tested on: HCT-116 colon
HL-60(TB) leukemia = tested on: HL-60(TB) leukemia
HOP-62 NSCLC = tested on: HOP-62 NSCLC
HOP-92 NSCLC = tested on: HOP-92 NSCLC
HT29 colon = tested on: HT29 colon
IGROV1 ovarian = tested on: IGROV1 ovarian
K-562 leukemia = tested on: K-562 leukemia
KM12 colon = tested on: KM12 colon
KM20L2 colon = tested on: KM20L2 colon
LOX IMVI melanoma = tested on: LOX IMVI melanoma
LXFL 529 NSCLC = tested on: LXFL 529 NSCLC
M14 melanoma = tested on: M14 melanoma
M19-MEL melanoma = tested on: M19-MEL melanoma
MALME-3M melanoma = tested on: MALME-3M melanoma
MOLT-4 leukemia = tested on: MOLT-4 leukemia
NCI-H226 lung = tested on: NCI-H226 lung
NCI-H23 lung = tested on: NCI-H23 lung
NCI-H460 lung = tested on: NCI-H460 lung
NCI-H522 lung = tested on: NCI-H522 lung
OVCAR-3 ovarian = tested on: OVCAR-3 ovarian
OVCAR-4 ovarian = tested on: OVCAR-4 ovarian
OVCAR-5 ovarian = tested on: OVCAR-5 ovarian
OVCAR-8 ovarian = tested on: OVCAR-8 ovarian
RPMI-8226 leukemia = tested on: RPMI-8226 leukemia
RXF 393 renal = tested on: RXF 393 renal
SF-268 CNS = tested on: SF-268 CNS
SF-295 CNS = tested on: SF-295 CNS
SF-539 CNS = tested on: SF-539 CNS
SK-MEL-2 melanoma = tested on: SK-MEL-2 melanoma
SK-MEL-28 melanoma = tested on: SK-MEL-28 melanoma
SK-MEL-5 melanoma = tested on: SK-MEL-5 melanoma
SK-OV-3 ovarian = tested on: SK-OV-3 ovarian
SN12C renal = tested on: SN12C renal
SNB-19 CNS = tested on: SNB-19 CNS
SNB-75 CNS = tested on: SNB-75 CNS
SW-620 colon = tested on: SW-620 colon
TK-10 renal = tested on: TK-10 renal
U251 CNS = tested on: U251 CNS
UACC-257 melanoma = tested on: UACC-257 melanoma
UO-31 renal = tested on: UO-31 renal
BT-549 breast = tested on: BT-549 breast
HOP-18 NSCLC = tested on: HOP-18 NSCLC
HS 578T breast = tested on: HS 578T breast
SNB-78 CNS = tested on: SNB-78 CNS
T-47D breast = tested on: T-47D breast

CC(=O)N/C(=C\c1ccc(Cc2nc3c([nH]2)C(=O)c2ccccc2C3=O)cc1)c1nc2c([nH]1)C(=O)c1ccccc1C2=O
> 100 µM: TGI (786-0 renal) | TGI (A498 renal) | TGI (A549 NSCLC) | TGI (ACHN renal) | TGI (CAKI-1 renal) | TGI (CCRF-CEM leukemia) | TGI (COLO 205 colon) | TGI (DLD-1 colon) | TGI (DMS 114 small cell lung) | TGI (EKVX NSCLC) | TGI (HCC-2998 colon) | TGI (HCT-116 colon) | TGI (HL-60(TB) leukemia) | TGI (HOP-62 NSCLC) | TGI (HOP-92 NSCLC) | TGI (HT29 colon) | TGI (IGROV1 ovarian) | TGI (K-562 leukemia) | TGI (KM12 colon) | TGI (KM20L2 colon) | TGI (LOX IMVI melanoma) | TGI (LXFL 529 NSCLC) | TGI (M14 melanoma) | TGI (M19-MEL melanoma) | TGI (MALME-3M melanoma) | TGI (MOLT-4 leukemia) | TGI (NCI-H226 lung) | TGI (NCI-H23 lung) | TGI (NCI-H460 lung) | TGI (NCI-H522 lung) | TGI (OVCAR-3 ovarian) | TGI (OVCAR-4 ovarian) | TGI (OVCAR-5 ovarian) | TGI (OVCAR-8 ovarian) | TGI (RPMI-8226 leukemia) | TGI (RXF 393 renal) | TGI (SF-268 CNS) | TGI (SF-295 CNS) | TGI (SF-539 CNS) | TGI (SK-MEL-2 melanoma) | TGI (SK-MEL-28 melanoma) | TGI (SK-MEL-5 melanoma) | TGI (SK-OV-3 ovarian) | TGI (SN12C renal) | TGI (SNB-19 CNS) | TGI (SNB-75 CNS) | TGI (SW-620 colon) | TGI (TK-10 renal) | TGI (U251 CNS) | TGI (UACC-257 melanoma) | TGI (UO-31 renal)

COc1ccc(/C=C\c2cc(OC)c(OC)c(OC)c2)cc1O
> 88.6 µM: TGI (UO-31 renal)
91.2 µM: TGI (T-47D breast)
< 0.031 µM: TGI (SK-OV-3 ovarian)
25.5 µM: TGI (786-0 renal)
8.09 µM: TGI (HS 578T breast)
4.16 µM: TGI (TK-10 renal)
78.6 µM and > 91.4 µM: TGI (OVCAR-5 ovarian)
active: GI50 (SNB-78 CNS) 0.00409 µM and < 0.001 µM
8.28 µM and 16.2 µM: TGI (KM20L2 colon)
inactive: GI50 (COLO 205 colon) 2.49 µM | GI50 (HT29 colon) 0.664 µM | GI50 (OVCAR-4 ovarian) 6.58 µM | GI50 (OVCAR-5 ovarian) 4.27 µM | GI50 (SK-MEL-28 melanoma) 3.16 µM | GI50 (T-47D breast) 48 µM | GI50 (TK-10 renal) 2.63 µM and 0.567 µM
9.28 µM and > 44.9 µM: TGI (HT29 colon)
1.22 µM and 2.38 µM: TGI (HCC-2998 colon)
82.1 µM: TGI (EKVX NSCLC)
> 100 µM: TGI (BT-549 breast) | TGI (HOP-18 NSCLC) | TGI (SNB-78 CNS)
13.9 µM and > 59.5 µM: TGI (CAKI-1 renal)
43.3 µM and 22.1 µM: TGI (COLO 205 colon)
